Results published in ChEMBL document CHEMBL5303304, “EUbOPEN Chemogenomics Library - IncuCyte” (2023).
Several values for one entry are separate records, joined by “and”; a condition that tells them apart may be missing. Identical values can stand only once.

Key:
Assay type in all cases: toxicity, cell-based
U2OS = experiment: Incucyte cell viability with U2OS; details: human, 10 µM, compound concentration 10 uM
HEK-293T = experiment: Incucyte cell viability with HEK293T; details: human, 10 µM, compound concentration 10 uM
Fibroblast = experiment: Incucyte cell viability with human fibroblast; details: 10 µM, compound concentration 10 uM
Also: unitless GR value; below 1 slowed growth and below 0 cell loss.

Compound	Growth Rate (U2OS; 6 h, replicate number 2)	Growth Rate (U2OS; 12 h, replicate number 2)	Growth Rate (HEK-293T; 12 h, replicate number 2)	Growth Rate (HEK-293T; 18 h, replicate number 1)	Growth Rate (HEK-293T; 18 h, replicate number 2)	Growth Rate (HEK-293T; 24 h, replicate number 1)	Growth Rate (HEK-293T; 24 h, replicate number 2)	Growth Rate (Fibroblast; 6 h, replicate number 1)	Growth Rate (Fibroblast; 6 h, replicate number 2)	Growth Rate (Fibroblast; 12 h, replicate number 1)	Growth Rate (Fibroblast; 12 h, replicate number 2)	Growth Rate (Fibroblast; 18 h, replicate number 2)	Growth Rate (Fibroblast; 24 h, replicate number 2)	Growth Rate (U2OS; 18 h, replicate number 2)	Growth Rate (U2OS; 24 h, replicate number 2)	Growth Rate (Fibroblast; 18 h, replicate number 1)	Growth Rate (Fibroblast; 24 h, replicate number 1)	Growth Rate (U2OS; 6 h, replicate number 1)	Growth Rate (Fibroblast; 0 h, replicate number 1)	Growth Rate (U2OS; 0 h, replicate number 1)	other results
Cl.O=C(c1ccc(-c2ccc(Cl)cc2)o1)N(Cc1ccccn1)c1ccc(N2CCNCC2)cc1	0.57	0.87	0.52	0.76	0.43	0.48	0.25	-0.62	-1	-1	-0.6	-0.43	-0.32	–	–	–	–	–	–	–	Growth Rate (U2OS; 0 h, replicate number 2): -0.97
CN(C)Cc1cccc(NC(=C2C(=O)Nc3cc(C(=O)N(C)C)ccc32)c2ccccc2)c1	0.99	0.73	–	–	–	–	0.95	0.08	–	0.68	–	–	–	0.82	0.8	0.68	0.47	–	–	–	–
O=C(CCSCc1ccco1)NNC(=O)N1Cc2ccccc2Oc2ccc(Cl)cc21	–	0.92	–	0.93	–	0.96	–	0.64	-0.43	0.82	0.45	0.53	0.72	–	0.92	0.92	0.8	0.95	-1	–	–
CN(c1ccc(C(F)(F)F)cc1)S(=O)(=O)c1ccc(C(=O)Nc2nc(-c3ccccn3)cs2)cc1	0.76	0.65	–	–	0.84	0.82	0.76	–	–	–	–	–	0.82	–	1	–	0.92	–	–	-1	Growth Rate (U2OS; 18 h, replicate number 1): 0.94
COc1cc(-c2cc3ncccc3c(O[C@H](C)[C@H]3CNC(=O)C3)n2)cc(OC)c1OC.Cl	–	–	–	–	0.97	–	0.86	0.62	–	0.89	0.61 and 0.94	0.86	–	–	0.94	0.88	–	–	-1	–	Growth Rate (U2OS; 12 h, replicate number 1): 0.79; Growth Rate (U2OS; 18 h, replicate number 1): 0.92; Growth Rate (U2OS; 24 h, replicate number 1): 0.78; Growth Rate (Fibroblast; 0 h, replicate number 2): -0.01
CCCN1C(=O)c2ccc(Cl)cc2Nc2ncccc21	–	0.68	0.86	–	–	–	–	0.56	-0.63	0.9	0.55	0.62	–	0.91	–	0.68	0.63	0.65	-1	0.38	Growth Rate (U2OS; 24 h, replicate number 1): 0.98
